Key:
DRB1*0301 (DR3) = target: T1, DRB1*0301 (DR3) (Homo sapiens, UniProt P01903+P01911, A100K/A102G/A103R/A169T/F55Y/I96L/K41T/L162R/M171V/P40S/Q125H/Q178H/Q39Y/R42S/S66N/T106N/T262R/W38E/Y61H); experiment: Purified HLA class II peptide binding assay, pH 4.5
T1 construct: endogenous in cells; host or cells: MAT

DRB1*1302 (DR6w19) = target: T2, DRB1*1302 (DR6w19) (Homo sapiens, UniProt P01903+P01911, A100E/A169T/K41T/L162R/M171V/P40S/Q125H/Q178H/Q39Y/Q99D/R42S/S66N/T262R/V115G/W38E/Y61H); experiment: Purified HLA class II peptide binding assay
T2 construct: endogenous in cells

A*0301 = target: T3, A*0301 (Homo sapiens, UniProt P04439); experiment: Purified HLA class I peptide binding assay (HLA-A*03)
T3 construct: endogenous in cells; host or cells: GM3107

A*1101 = A*1101 (Homo sapiens, UniProt P04439, A114D/D185E/E176A/F33Y/L180Q/S129P/T187R); experiment: Purified HLA class I peptide binding assay (HLA-A*11)
A*3101 = A*3101 (Homo sapiens, UniProt P04439, A270S/D185E/E176V/E277Q/F33T/G231S/G80R/H175R/I121M/I218V/I322F/K168Q/L300P/L318F/M331R/P217A/Q94H/R138Q/T323A/T345S/T97I/V358M); experiment: Purified HLA class I peptide binding assay
A*3301 = A*3301 (Homo sapiens, UniProt P04439, A270S/D185E/E176V/E277Q/E87N/F33T/G231S/H175R/I121M/I218V/I322F/K168Q/K210R/L300P/L318F/M331R/P217A/Q86R/Q94H/R138Q/T323A/T345S/T97I/V358M/Y195H); experiment: biochemical; assay type: binding
A*6801 = A*6801 (Homo sapiens, UniProt P04439, A269V/D185E/E176V/E277Q/E87N/F33Y/G231S/I121M/I166T/I218V/L180W/L300P/L318F/N151K/P208A/P217A/Q86R/R169H/T345S); experiment: Purified HLA class I peptide binding assay
A*0202 = A*0202 (Homo sapiens, UniProt P04439, D140Y/D185E/D98H/E176V/E277Q/G131W/G231S/I119L/I121R/I166T/I218V/L180W/L300P/L318F/N151K/N90K/P208A/P217A/Q67R/Q86G/Q94H/R138H/R169H/T345S); experiment: Purified HLA class I peptide binding assay
A*6802 = A*6802 (Homo sapiens, UniProt P04439, A269V/D140Y/D185E/E176V/E277Q/E87N/F33Y/G231S/I121R/I166T/I218V/L180W/L300P/L318F/N151K/P208A/P217A/Q86R/R138H/R169H/S129P/T345S/V36M); experiment: Purified HLA class I peptide binding assay
A2-supertype alleles = assay type: binding, human; conditions: number of supertype alleles bound; 3 or more considered degenerate

T2 sequence (P01903 26-254, other chains not shown): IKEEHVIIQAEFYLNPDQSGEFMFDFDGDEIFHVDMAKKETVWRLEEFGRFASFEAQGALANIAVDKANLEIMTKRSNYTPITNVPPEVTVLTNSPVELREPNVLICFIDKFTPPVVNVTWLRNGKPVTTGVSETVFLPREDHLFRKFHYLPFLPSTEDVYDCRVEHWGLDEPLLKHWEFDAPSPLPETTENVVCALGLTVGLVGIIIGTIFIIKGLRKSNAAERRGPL

## CC[C@H](C)[C@H](NC(=O)[C@H](Cc1c[nH]c2ccccc12)NC(=O)[C@@H](NC(=O)CN)C(C)C)C(=O)N[C@@H](CCCNC(=N)N)C(=O)N[C@H](C(=O)N1CCC[C@H]1C(=O)N1CCC[C@H]1C(=O)N[C@@H](C)C(=O)N[C@@H](Cc1ccc(O)cc1)C(=O)N[C@@H](CCCNC(=N)N)C(=O)N1CCC[C@H]1C(=O)N1CCC[C@H]1C(=O)N[C@@H](CC(N)=O)C(=O)N[C@@H](C)C(=O)O)[C@@H](C)O [27.0280]
DRB1*0301 (DR3)
  IC50: > 20000 nM
DRB1*1302 (DR6w19)
  IC50: > 20000 nM

## CC[C@H](C)[C@H](NC(=O)[C@@H]1CCCN1C(=O)[C@H](CC(C)C)NC(=O)[C@@H](N)CC(C)C)C(=O)N[C@@H](Cc1ccccc1)C(=O)N[C@@H](Cc1ccccc1)C(=O)N[C@@H](CS)C(=O)N[C@@H](CC(C)C)C(=O)N[C@@H](Cc1c[nH]c2ccccc12)C(=O)N[C@H](C(=O)N[C@@H](Cc1ccc(O)cc1)C(=O)O)C(C)C [Peptide 26.0549]
A*0301
  IC50: 478 nM
A*1101
  IC50: 10000 nM
A*3101
  IC50: 2610 nM
A*3301
  IC50: 644 nM
A*6801
  IC50: 82 nM

## CC[C@H](C)[C@H](N)C(=O)N[C@@H](CC(C)C)C(=O)N[C@@H](CO)C(=O)N[C@H](C(=O)N[C@@H](CC(C)C)C(=O)N1CCC[C@H]1C(=O)N[C@@H](CCC(=O)O)C(=O)N[C@H](C(=O)N[C@H](C(=O)N[C@H](C(=O)O)C(C)C)[C@@H](C)O)[C@@H](C)O)[C@@H](C)O [Peptide 1069.14]
A*0202
  IC50: 506 nM
A*6802
  IC50: 5970 nM
A2-supertype alleles
  Alleles bound: 2

## CC(C)C[C@H](NC(=O)[C@H](Cc1c[nH]c2ccccc12)NC(=O)[C@H](CO)NC(=O)[C@H](CC(C)C)NC(=O)[C@@H](N)CC(N)=O)C(=O)N[C@@H](CO)C(=O)N[C@@H](CC(C)C)C(=O)N[C@@H](CC(=O)O)C(=O)N[C@H](C(=O)N[C@@H](CO)C(=O)N[C@@H](C)C(=O)N[C@@H](C)C(=O)N[C@@H](Cc1ccccc1)C(=O)N[C@@H](Cc1ccc(O)cc1)C(=O)N[C@@H](Cc1c[nH]cn1)C(=O)O)C(C)C [Peptide 1186.18]
DRB1*0301 (DR3)
  IC50: 231 nM

— US20070059799A1 (priority 1999, published 2007)
